Laboratory results from patent publication US7731941B2, “Staining composition for staining an ophthalmic membrane” (priority 2004, dated 2010).
Values joined by “and” are separate entries in the source; they are usually repeats but may differ in a detail not shown here. Equal values may be shown once. “Also recorded” adds a separate entry of the source. Read-outs that look alike come from different tables or passages of the source.

Columns and labels:
anterior capsule [1] = details: stated for comparison, no test described; cited from earlier work
corneal endothelium = details: single anterior chamber injection; for apoptotic cell death (TUNEL) in corneal stromal cells, endothelium, ciliary body and lens cells: BBG 0.01-10 mg/ml, ICG 5 mg/ml
ILM [2] = test: BBG in ILM staining, effects and safety in human eyes (first attempt, 16 eyes); format: in vivo
Procedure: Sixteen eyes of 16 patients with a macular hole (MH) and epiretinal membranes (ERMS) were recruited from the outpatient unit of Kyushu University Hospital (Fukuoka, Japan) between August and September 2004. Patients with ocular diseases such as glaucoma, uveitis, and corneal disorder were excluded. This study was carried out with the approval from the appropriate institutional Ethics Committee and was performed in accordance with the ethical standards laid down in the 1989 Declaration of Helsinki. The possible advantages and risks of the present treatment were explained to the patients before surgery and informed consent was obtained from all patients. […] The final concentration of BBG was 0.25 mg/ml. […] Removal of the ILM was performed using ILM forceps (D.O.R.C.; Dutch Ophthalmic Research Center International b.v., Netherlands).
Postoperative examinations included slitlamp microscopy, opthalmoscopy, best corrected visual acuity (BCVA) and intraocular pressure. The visual field was evaluated with Humphrey Field Analyzer II (Humphrey Systems, Dublin, Calif., USA) after 2 months.

ILM [3] = tested on: ILM
[4] = Osmolarity and pH of the BBG solution; format: physicochemical
anterior capsule [5] = test: BBG-assisted continuous curvilinear capsulorhexis in a human eye; format: in vivo
Procedure: A person with a white mature cataract underwent BBG-assisted CCC and phacoemulsification with intraocular lens (IOL) implantation in August 2004. The patient had no other ocular diseases, such as glaucoma, uveitis or corneal disorders. Coomassie® BBG 250 (Sigma-Aldrich, St. Louis, USA) was dissolved in intraocular irrigating solution (OPEGUARD®-MA; Senjyu Pharmaceutical Co., Ltd., Osaka, Japan) at a dose of 0.25 mg/ml and sterilized with a syringe filter. The BBG solution was gently injected into the anterior chamber and then washed out immediately with balanced salt solution (BSS).

retina [6] = tested on: retina
anterior capsule [7] = test: Capsular staining ability of BBG in pig eyes
Procedure: The capsular staining ability of BBG was assessed in pig eyes using graded concentrations of the dye.
The pig eyes were obtained from a local slaughterhouse and transported to the laboratory on ice. The extraocular muscles and other connective tissues were carefully cut off and the eyes were placed on the operation chamber. The BBG solution was prepared using the following method. Twenty milligrams of BBG (Coomassie. brilliant blue G 250; Signa-Aldrich, St. Louis, USA) were dissolved in 10 ml of intraocular irrigating solution (OPEGUARD.-MA, Senjyu Pharmaceutical Co., Ltd., Osaka, Japan) and sterilized with a syringe filter (Minisart. Sartorius AG, Goettingen, Germany). Under the operation microscope, the capsular staining by BBG was examined as follows. […] The anterior chamber was immediately irrigated by enhanced balanced salt solution (BSS Plus®, Santen Pharmaceuticals, Japan) and the excessive dye was easily washed out.
To deepen the anterior chamber, 1% sodium hyaluronate (Healon®, Pharmacia, Uppsala, Sweden) was injected. A CCC was initiated by preparing a small triangular anterior capsular flap with a bent 26-gauge disposable needle mounted on a viscoelastic syringe. The CCC was completed using a cystotome or capsulorhexis forceps.

ILM [8] = tested on: ILM; remark: listed apart in the source
Procedure: Since ILM peeling is impossible in rat eyes, the inventors examined the ability of BBG to stain the ILM in primate eyes. Two eyes from two cynomolgus monkeys at 3 years of age were used in this study. The animals were restrained in a squeeze cage and injected intramuscularly in the thigh with 20 mg/kg of ketamine hydrochloride (Sankyo Yell Pharmaceutical Products Co. Ltd., Japan) for general anesthesia. The monkeys were subsequently transported to an operating room. Surgery consisted of a standard three port pars plana vitrectomy with induction of a posterior vitreous detachment by suction with a vitrectomy cutter using triamcinolone acetonide injection for vitreous visualization.
Ten milligrams of BBG were dissolved in 20 ml of intraocular irrigating solution and sterilized with a syringe filter. The final concentration of BBG was 0.5 mg/ml. The prepared BBG solution (0.5 ml) was then injected gently into the vitreous cavity and washed out immediately with balanced salt solution (BSS Plus (Registered trademark), Santen, Osaka, Japan). Removal of the ILM was performed using ILM forceps.

retina [9] = details: rat, in vivo
retina [10] = details: rat, in vivo; remark: listed apart in the source
Procedure: Brown Norway rats (n=78 males, 8 weeks old, Kyudo, Fukuoka, Japan) were anesthetized with an intraperitoneal injection of ketamine hydrochloride at a dose of 75 mg/kg body weight. One eye from each animal (total of n=6 per dose group) was vitrectomized using 0.05 ml of pure SF6 gas as described previously. Following the gas injection, 0.05 ml of BBG solution was injected into the vitreous cavity of each vitrectomized eye using a microscope for enhanced magnification during surgery. […] Twenty-four sham-operated eyes (injected with SF6 followed by 0.05 ml of intraocular irrigating solution) were used as controls.
The eyes were enucleated on day 14 and at 2 months post-operation and fixed in 1% glutaraldehyde and 1% paraformaldehyde in PBS. The specimens were postfixed in veronal acetate buffer osmium tetroxide (2%), dehydrated in ethanol and water, and embedded in Epon. Ultrathin sections were cut from blocks and mounted on copper grids.

corneal cells = test: Anterior chamber injection of dyes in rats: transmission electron microscopy; details: single anterior chamber injection; BBG 10 mg/ml, ICG 5 mg/ml, TB 1 mg/ml
Procedure: Brown Norway rats (Kyudo, Fukuoka, Japan), postnatal 8 weeks, were studied as follows. The rats were anesthetized with an intraperitoneal injection of pentobarbital and their pupils were dilated with topical 1% tropicamide and 2.5% phenylephrine hydrochloride. The anterior chamber was entered through the clear cornea with a 30-gauge needle mounted on a syringe. Then a single anterior chamber injection was performed with each dye, BBG (10, 1, 0.5, 0.25, 0.1 and 0.01 mg/ml), ICG (5 mg/ml), trypan blue (1 mg/ml), and the control OPEGUARD. solution (n=6 for each dye, total 54 eyes).
The dye remained in the anterior chamber and was followed by biomicroscopic examination for 2 months. The eyes were enucleated at 2 weeks and 2 months after operation. The eyes were analyzed by light microscopy, transmission and scanning electron microscopy.
The eyes were enucleated and the anterior segments were fixed in 1% glutaraldehyde and 1% paraformaldehyde in PBS. The specimens were postfixed in veronal acetate buffer osmium tetroxide (2%), dehydrated in ethanol and water, and embedded in Epon. Ultrathin sections were cut from blocks and mounted on copper grids.

cornea = test: Anterior chamber injection of dyes in rats: light microscopy (HE); format: in vivo, Brown Norway rats; details: single anterior chamber injection; BBG 0.01-10 mg/ml, ICG 5 mg/ml, TB 1 mg/ml; 2 weeks and 2 months
Text: The eyes were fixed in 4% paraformaldehyde and cut in half, embedded in paraffin, deparaffinized in xylene, rehydrated in ethanol, and washed in phosphate-buffered saline (PBS). The 4 μm thick sections were stained by hematoxylin and eosin, and observed by light microscope.

[11] = 0.25 mg/ml, 0.5 ml intravitreal, washed out immediately
[12] = individual patient case, BBG 0.25 mg/ml
[13] = BBG 10 mg/ml in intraocular irrigating solution (OPEGUARD-MA)

Cc1cc(-c2ccc(/N=N/c3c(S(=O)(=O)O)cc4cc(S(=O)(=O)O)cc(N)c4c3O)c(C)c2)ccc1/N=N/c1c(S(=O)(=O)O)cc2cc(S(=O)(=O)O)cc(N)c2c1O [TB, Trypan Blue]
concentration required for staining of the anterior capsule (comparison dyes) (anterior capsule [1]): 1 mg/mL | apoptotic cell death of corneal endothelium, share of the total endothelial cells (corneal endothelium; TB 1 mg/ml): 2%

CCOc1ccc(Nc2ccc(/C(=C3C=C/C(=[N+](/CC)Cc4cccc(S(=O)(=O)[O-])c4)C=C/3C)c3ccc(N(CC)Cc4cccc(S(=O)(=O)[O-])c4)cc3C)cc2)cc1.[Na+] [BBG, Brilliant Blue G]
staining of the ERMS (ILM [2]; 0.25 mg/ml): could not be confirmed | ILM staining (ILM [2]; [11]): stained a light blue color | elevation of intraocular pressure (ILM [2]; 16 eyes, BBG 0.25 mg/ml): None of the patients had an elevation of intraocular pressure | visual acuity (ILM [2]; 16 eyes, MH and ERM, BBG 0.25 mg/ml assisted peeling): recovered in all cases | Postop. Retinal status (ILM [2]; [12]): MH closed; also recorded: Fold (−); also recorded: Macular | complications (ILM [2]; [12]): Peripheral (2×) and none (13×) and Vitreous | Postop. BCVA (ILM [2]; individual patient case, BBG 0.25 mg/ml, follow up 2-4 months): 20/50 (2×) and 20/63 (2×) and 20/25 (2×) and 20/32 (4×) and 20/40 (3×) and 20/16 and 20/20 | other adverse effects due to BBG (ILM [2]; within the observation period): No other adverse effects | staining of the ERM in ERM cases (ILM [3]; 0.25 mg/ml): could not be confirmed | ILM staining in MH cases (ILM [3]; [11]): stained a bright blue color instantly | staining of the ILM of the area where the ERM had been removed (ILM [3]; 0.25 mg/ml, second injection after ERM peeling): well stained | removal of the ILM including the ERM during surgery (ILM [3]; 20 eyes): removed from all 20 eyes successfully | patients with improvement of 2 or more lines on the Snellen chart (ILM [3]; ERM cases, eight of 10 patients): 80% | mean foveal thickness of retina measured with OCT, postoperative (ILM [3]; ERM cases, preoperative 454.7±141.3 μm): 249.4±71.3 μm | postoperative median BCVA (ILM [3]; ERM cases, preoperative median 20/50): 20/32 | eyes with visual acuity improved by 2 or more Snellen lines (ILM [3]; MH cases, 9 of 10 eyes): 90% | postoperative median BCVA (ILM [3]; MH cases, preoperative median 20/100): 20/32 | closure of MH (ophthalmoscopy and OCT) (ILM [3]; all 10 MH cases): completely closed anatomically | complication: protraction of vitreous hemorrhage (ILM [3]; in vivo): one case | complications: iatrogenic peripheral retinal breaks (ILM [3]; in vivo): two cases | elevation of IOP (ILM [3]; in vivo): 26 mmHg | other adverse effects such as retinal pigment epithelium (RPE) atrophy (ILM [3]; in vivo): No other adverse effects | Postop. Retinal status (ILM [3]; individual MH case): MH closed | Osmolarity ([4]; BBG 0.01 mg/ml in OPEGUARD-MA): 298 mOsm/KgH20 | pH ([4]; BBG 0.01 mg/ml in OPEGUARD-MA): 7.41 | Osmolarity ([4]; BBG 0.1 mg/ml in OPEGUARD-MA): 298 mOsm/KgH20 | pH ([4]; BBG 0.1 mg/ml in OPEGUARD-MA): 7.41 | osmolarity of prepared BBG solution ([4]; BBG 0.25 mg/ml in OPEGUARD-MA): 289 mOsm | pH of prepared BBG solution ([4]; BBG 0.25 mg/ml in OPEGUARD-MA): 7.44 | Osmolarity ([4]; BBG 1.0 mg/ml in OPEGUARD-MA): 300 mOsm/KgH20 | pH ([4]; BBG 1.0 mg/ml in OPEGUARD-MA): 7.42 | Osmolarity [4, 13]: 310 mOsm/KgH20 | pH [4, 13]: 7.41 | visibility of the anterior capsule during CCC (anterior capsule [5]; 0.25 mg/ml into anterior chamber, immediately irrigated, white mature cataract): clearly visible | corneal endothelial cell loss (anterior capsule [5]; after 2 months): 0.8% | visual acuity after surgery (anterior capsule [5]; improved from light perception (LP)): 20/20 | acute toxicity (corneal edema, severe inflammation or elevated intraocular pressure) (anterior capsule [5]; the following day): no acute toxicity | apoptotic cell death of retinal cells (retina [6]; all BBG dose groups, after 2 months): had not undergone apoptotic cell death | apoptotic cell death in retina (TUNEL) (retina [6]; intravitreal 10 mg/ml, day 14): one case of apoptotic cell death was observed from among ten sections | apoptotic cell ratio compared with control sections (retina [6]; intravitreal 10 mg/ml, day 14): not significantly different | TUNEL staining in the retina (retina [6]; intravitreal lower doses, day 14): no TUNEL staining was observed | concentration providing satisfactory staining of the anterior capsule (anterior capsule [7]): 0.25 mg/mL | capsular staining (anterior capsule [7]; 0.1 mg/ml and 0.01 mg/ml): obscure | staining of the anterior capsule (anterior capsule [7]; 0.25 mg/ml to 1 mg/ml, staining deepened with concentration): stained the anterior capsule homogenously | minimal concentration needed to produce high quality staining with clear visualization (anterior capsule [7]; pig eye anterior capsule): 0.25 mg/mL | ILM staining (ILM [8]; 0.5 mg/ml, 0.5 ml into vitreous cavity, washed out immediately): stained a light blue color | concentration of BBG required to stain the ILM of primates in comparison with ICG (ILM [8]; ratio to ICG concentration): about 1/10 | apoptotic cell death (TUNEL) in corneal stromal cells, endothelium, ciliary body and lens cells (corneal endothelium): no TUNEL staining was observed | infiltration of inflammatory cells (light microscopy) (retina [9]): no infiltration of inflammatory cells was observed | toxic effects such as corneal edema, severe retinal edema, or endophthalmitis (surgical microscopy) (retina [9]): no toxic effects | changes in inner nuclear, outer nuclear and retinal pigment epithelial cell layers (TEM) (retina [10]): no remarkable changes were observed

CC1(C)C(/C=C/C=C/C=C/C=C2\N(CCCCS(=O)(=O)O)c3ccc4ccccc4c3C2(C)C)=[N+](CCCCS(=O)(=O)[O-])c2ccc3ccccc3c21 [ICG, Indocyanine green]
ultrastructure of corneal cells and endothelium (TEM) (corneal cells): some endothelial cells demonstrated signs of mitochondrial swelling | concentration required for staining of the anterior capsule (comparison dyes) (anterior capsule [1]): 5 mg/mL | changes in hematoxilin and eosin stained sections of the cornea (cornea): no remarkable changes | apoptotic cell death (TUNEL) in corneal stromal cells, endothelium, ciliary body and lens cells (corneal endothelium): no apparent apoptotic cell death was detected
